In patent US20250304567A1, “PYRROLIDIONE DERIVATIVES AS INHIBITORS OF NF KAPPA B INDUCING KINASE” (priority 2022, published 2025):
Like-named read-outs stand apart in the source and are kept apart here.

Columns and labels:
[1] = molecular target: Recombinant Human NF-kappaB-Inducing Kinase (NIK/MAP3K14) (Homo sapiens, UniProt Q99558); assay: Inhibition of auto-phosphorylation of recombinant human NIK/MAP3K14 activity (AlphaScreen); format: biochemical; conditions: 5 μM ATP, 1 nM NIK, average if tested more than once
Description: Assay 1: Inhibition of Auto-Phosphorylation of Recombinant Human NF-kappaB-Inducing Kinase (NIK/MAP3K14) Activity (AlphaScreen™)
NIK/MAP3K14 auto-phosphorylation activity was measured using the AlphaScreen™ (αscreen) format (Perkin Elmer). All compounds tested were dissolved in dimethyl sulfoxide (DMSO) and further dilutions were made in assay buffer. The final DMSO concentration was 0.7% (v/v) in assays. The assay buffer was 50 mM Tris pH 7.5 containing 1 mM EGTA (ethylene glycol tetraacetic acid), 1 mM DTT (dithiothreitol), 0.1 mM Na3VO4, 5 mM MgCl2, and 0.01% Tween®20. The assays were carried out in 384 well Proxiplates (Perkin Elmer). The incubations consisted of the compound, 5 μM Adenosine-5′-triphosphate (ATP), and 1 nM NIK/MAP3K14. Incubations were initiated by the addition of GST-tagged NIK/MAP3K14 enzyme, carried out for 2 h at 25° C. and terminated by addition of stop buffer containing anti-phospho-IKK Ser176/180 antibody. Protein A Acceptor and Glutathione-Donor beads were added before reading using an EnVision Multilabel Plate Reader (Perkin Elmer). The signal obtained in the wells was normalized using high (full enzyme activity, 0.7% DMSO) and low controls (no enzyme activity, 0.7% DMSO, no ATP). IC50's were determined by fitting a sigmoidal curve to % inhibition of control versus Log10 compound concentration.

[2] = tested on: p-IKKa levels in L363 (NIK translocated multiple myeloma) cells; assay: Effect of compounds on p-IKKa levels in L363 (NIK translocated multiple myeloma) cells (AlphaLISA SureFire Ultra p-IKKa Ser176/180); format: cell-based, human
Description: Assay 2: Effect of Compounds on p-IKKa Levels in L363 (NIK Translocated Multiple Myeloma) Cells
All compounds tested were dissolved and serially diluted in DMSO, 1:3 dilution for 11 points in an Echo compatible plate. 100% DMSO was added to columns 12 and 24 of the plate to serve as high and low signal controls. This compound plate was used to spot 20 nL of compound or DMSO into a Greiner 384 well TC plate (781080). The final DMSO concentration was 0.3% (v/v) in cell assays. Human L363 cells (ATCC) were cultured in RPM11640 medium supplemented with GlutaMax, non-essential amino acids, sodium pyruvate and 10% fetal bovine serum. Cells were routinely maintained at densities of 0.2×10^6 cells per ml-2×10^6 cells per mL at 37° C. in a humidified 5% CO2 atmosphere incubator. Cells were passaged twice a week splitting back to obtain the low density. The day before the assay, cells were washed twice in HBSS (Hank's Balanced Salt Solution), resuspended in Dulbecco's Modified Eagle Medium (DMEM)+0.5% IgG and protease free BSA (Jackson Immuno Research Laboratories), +/−250 ng/ml recombinant human B-cell activating factor (BAFF/BLyS/TNFSF13B) and incubated overnight at 37° C. in a humidified 5% CO2 atmosphere (bulk stimulation with or without BAFF). The next day, the cell concentration was adjusted to 1×10^7 cells/ml in DMEM+/−250 ng/ml BAFF+/−10 μM MG132 and plated at 10 μl/well into compound or DMSO spotted 384 well TC plates. Seeded cells were incubated at 37° C. in a humidified 5% CO2 atmosphere for 6 h. After 6 h, the plates were removed from the incubator and cell lysis was achieved by the addition of 2.5 μl 5× lysis buffer containing protease and phosphatase inhibitors, followed by shaking on a plate shaker at room temperature for 15 min. At the end of this incubation, lysed cells were sequentially treated and incubated with acceptor and donor bead mixes according to the manufacturer's protocol for a 1 plate/2-incubation suspension cell assay (AlphaLISA SureFire Ultra p-IKKa (Ser 176/180) Assay Kit (Perkin Elmer). Plates were read using an EnVision Multilabel Plate Reader (Perkin Elmer). Within an experiment, a concentration response curve for each compound was run in duplicate. The signal obtained in the test wells was normalized using high signal (BAFF stimulated cells, DMSO, MG132) and low signal (unstimulated cells, DMSO) controls. To determine the IC50, a sigmoidal curve was fitted to the plot of % inhibition versus Log10 compound concentration.

[3] = Homo sapiens, L-363, p-IKKa levels in L363 cells, average if tested more than once, read-out: Assay 2 IC50
[4] = p-IKKa levels in L363 cells, average if tested more than once, read-out: Assay 2 IC50

Recombinant Human NF-kappaB-Inducing Kinase (NIK/MAP3K14), sequence (Q99558 whole entry): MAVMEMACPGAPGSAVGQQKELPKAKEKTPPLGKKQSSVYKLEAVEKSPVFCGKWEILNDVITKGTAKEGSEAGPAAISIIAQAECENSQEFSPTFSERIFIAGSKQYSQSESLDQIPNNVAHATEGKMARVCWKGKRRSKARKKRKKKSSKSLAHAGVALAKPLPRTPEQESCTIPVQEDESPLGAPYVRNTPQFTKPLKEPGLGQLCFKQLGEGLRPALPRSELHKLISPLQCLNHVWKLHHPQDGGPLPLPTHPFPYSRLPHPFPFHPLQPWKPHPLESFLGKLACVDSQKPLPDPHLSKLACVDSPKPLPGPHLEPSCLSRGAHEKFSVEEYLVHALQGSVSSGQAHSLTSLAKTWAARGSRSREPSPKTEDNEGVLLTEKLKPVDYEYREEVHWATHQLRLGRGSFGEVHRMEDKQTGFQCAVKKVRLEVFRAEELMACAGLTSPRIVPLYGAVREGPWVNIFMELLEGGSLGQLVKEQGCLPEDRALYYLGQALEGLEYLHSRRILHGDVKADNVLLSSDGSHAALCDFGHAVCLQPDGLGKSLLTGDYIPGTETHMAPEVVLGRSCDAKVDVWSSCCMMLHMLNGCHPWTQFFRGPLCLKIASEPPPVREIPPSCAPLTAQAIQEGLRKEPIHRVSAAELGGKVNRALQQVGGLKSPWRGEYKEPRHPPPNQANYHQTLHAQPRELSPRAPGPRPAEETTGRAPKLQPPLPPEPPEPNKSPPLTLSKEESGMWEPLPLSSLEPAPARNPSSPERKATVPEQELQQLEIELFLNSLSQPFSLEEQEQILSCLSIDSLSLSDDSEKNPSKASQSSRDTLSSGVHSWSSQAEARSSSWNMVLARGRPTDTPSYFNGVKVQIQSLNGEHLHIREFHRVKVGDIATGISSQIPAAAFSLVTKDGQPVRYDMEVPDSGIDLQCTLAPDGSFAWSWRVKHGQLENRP

SMILES: CN1CC[C@@](O)(c2cccc(-c3cccc(-c4ccnc(NCCCO)n4)n3)c2)C1=O [Example 23, (R)-3-Hydroxy-3-(3-(6-(2-((3-hydroxypropyl)amino)pyrimidin-4-yl)pyridin-2-yl)phenyl)-1-methylpyrrolidin-2-one]
- IC50 [1]: > 501 nM
- IC50 [2, 3]: > 501 nM

SMILES: CNc1nccc(-c2csc(-c3cccc([C@]4(O)CCN(C)C4=O)c3)n2)n1 [Example 170]
- IC50 [1]: 100 to 500 nM
- IC50 [2, 3]: > 501 nM

SMILES: CN1CCC(O)(c2ccnc(-c3nc(-c4ccnc(Nc5ccn(C)n5)n4)cs3)c2)C1=O (single isomer, unassigned) [Example 34, 3-hydroxy-1-methyl-3-(2-(4-(2-((1-methyl-1H-pyrazol-3-yl)amino)pyrimidin-4-yl)thiazol-2-yl)pyridin-4-yl)pyrrolidin-2-one]
- IC50 [1]: < 100 nM
- IC50 [2, 4]: 100 to 500 nM

SMILES: CN1CC[C@@](O)(c2cccc(-c3nc(-c4ccnc(Nc5cn(C)nn5)n4)cs3)c2)C1=O [Example 283, (R)-3-hydroxy-1-methyl-3-(3-(4-(2-((1-methyl-1H-1,2,3-triazol-4-yl)amino)pyrimidin-4-yl)thiazol-2-yl)phenyl)pyrrolidin-2-one]
- IC50 [1]: < 100 nM
- IC50 [2, 3]: 100 to 500 nM

SMILES: CN1CC[C@@](O)(c2cccc(-c3cccc(-c4ccnc(Nc5ccn(C)n5)n4)n3)c2)C1=O [Example 22, (R)-3-Hydroxy-1-methyl-3-(3-(6-(2-((1-methyl-1H-pyrazol-3-yl)amino)pyrimidin-4-yl)pyridin-2-yl)phenyl)pyrrolidin-2-one]
- IC50 [1]: > 501 nM
- IC50 [2, 3]: > 501 nM

SMILES: CN1CC[C@@](O)(c2cccc(-c3nc(-c4ccnc(N[C@@H]5CCOC5)n4)cs3)c2)C1=O [Example 251]
- IC50 [1]: < 100 nM
- IC50 [2, 3]: > 501 nM

SMILES: CN1CC[C@@](O)(c2cccc(-c3nc(-c4ccnc(NCc5cnccn5)n4)cs3)c2)C1=O [Example 194]
- IC50 [1]: 100 to 500 nM
- IC50 [2, 3]: > 501 nM

SMILES: COc1nn(CC(F)F)cc1Nc1nccc(-n2ccc(-c3cncc([C@]4(O)CCN(C)C4=O)c3)n2)n1 (single isomer, unassigned) [Example 150, (R)-3-(5-(1-(2-((1-(2,2-difluoroethyl)-3-methoxy-1H-pyrazol-4-yl)amino)pyrimidin-4-yl)-1H-pyrazol-3-yl)pyridin-3-yl)-3-hydroxy-1-methylpyrrolidin-2-one or (S)-3-(5-(1-(2-((1-(2,2-difluoroethyl)-3-methoxy-1H-pyrazol-4-yl)amino)pyrimidin-4-yl)-1H-pyrazol-3-yl)pyridin-3-yl)-3-hydroxy-1-methylpyrrolidin-2-one]
- IC50 [1]: < 100 nM
- IC50 [2, 3]: < 100 nM

SMILES: CC(C)n1nccc1Nc1nccc(-c2csc(-c3cccc([C@]4(O)CCN(C)C4=O)c3)n2)n1 [Example 66, (R)-3-hydroxy-3-(3-(4-(2-((1-isopropyl-1H-pyrazol-5-yl)amino)pyrimidin-4-yl)thiazol-2-yl)phenyl)-1-methylpyrrolidin-2-one]
- IC50 [1]: 100 to 500 nM
- IC50 [2, 3]: > 501 nM

SMILES: CN1C(=O)[C@@](O)(c2cccc(-c3nc(-c4ccnc(Nc5ccn(C)n5)n4)cs3)c2)C[C@H]1C(F)(F)F (relative stereo) [Example 38, (trans)-3-hydroxy-1-methyl-3-(3-(4-(2-((1-methyl-1H-pyrazol-3-yl)amino)pyrimidin-4-yl)thiazol-2-yl)phenyl)-5-(trifluoromethyl)pyrrolidin-2-one]
- IC50 [1]: < 100 nM
- IC50 [2, 4]: 100 to 500 nM

SMILES: CN1CC[C@@](O)(c2cccc(-c3nc(-c4ccnc(NCCCNS(C)(=O)=O)n4)cs3)c2)C1=O [Example 231]
- IC50 [1]: 100 to 500 nM
- IC50 [2, 3]: > 501 nM

SMILES: CN1CCC(O)(c2cc(F)cc(-c3csc(-c4ccnc(Nc5ccn(C)n5)n4)n3)c2)C1=O (single isomer, unassigned) [Example 27, 3-(3-fluoro-5-(2-(2-((1-methyl-1H-pyrazol-3-yl)amino)pyrimidin-4-yl)thiazol-4-yl)phenyl)-3-hydroxy-1-methylpyrrolidin-2-one]
- IC50 [1]: < 100 nM
- IC50 [2, 4]: 100 to 500 nM

SMILES: CN1CCC[C@H](Nc2nccc(-c3csc(-c4cccc([C@]5(O)CCN(C)C5=O)c4)n3)n2)C1=O [Example 223]
- IC50 [1]: > 501 nM
- IC50 [2, 3]: > 501 nM

SMILES: CN1CC[C@@](O)(c2cccc(-c3nc(-c4ccnc(Nc5cccc(C(F)(F)F)n5)n4)cs3)c2)C1=O [Example 169, (R)-3-Hydroxy-1-methyl-3-(3-(4-(2-((6-(trifluoromethyl)pyridin-2-yl)amino)pyrimidin-4-yl)thiazol-2-yl)phenyl)pyrrolidin-2-one]
- IC50 [1]: < 100 nM
- IC50 [2, 3]: > 501 nM

SMILES: CN1CC[C@@](O)(c2cncc(-c3ccn(-c4ccnc(Nc5cnn6cccnc56)n4)n3)c2)C1=O (single isomer, unassigned) [Example 148, (R)-3-hydroxy-1-methyl-3-(5-(1-(2-(pyrazolo[1,5-a]pyrimidin-3-ylamino)pyrimidin-4-yl)-1H-pyrazol-3-yl)pyridin-3-yl)pyrrolidin-2-one or (S)-3-hydroxy-1-methyl-3-(5-(1-(2-(pyrazolo[1,5-a]pyrimidin-3-ylamino)pyrimidin-4-yl)-1H-pyrazol-3-yl)pyridin-3-yl)pyrrolidin-2-one]
- IC50 [1]: < 100 nM
- IC50 [2, 3]: > 501 nM

SMILES: Cc1cnc(CNc2nccc(-c3csc(-c4cccc([C@]5(O)CCN(C)C5=O)c4)n3)n2)nc1 [Example 208]
- IC50 [1]: > 501 nM
- IC50 [2, 3]: > 501 nM

SMILES: CN1CC[C@@](O)(c2cccc(-c3nc(-c4ccnc(Nc5cnn(CC(F)F)c5)n4)cs3)c2)C1=O [Example 141, (R)-3-(3-(4-(2-((1-(2,2-difluoroethyl)-1H-pyrazol-4-yl)amino)pyrimidin-4-yl)thiazol-2-yl)phenyl)-3-hydroxy-1-methylpyrrolidin-2-one]
- IC50 [1]: < 100 nM
- IC50 [2, 3]: < 100 nM

SMILES: Cc1nn(C)cc1Nc1nccc(-c2csc(-c3cccc([C@]4(O)CCN(C)C4=O)c3)n2)n1 [Example 269, (R)-3-(3-(4-(2-((1,3-dimethyl-1H-pyrazol-4-yl)amino)pyrimidin-4-yl)thiazol-2-yl)phenyl)-3-hydroxy-1-methylpyrrolidin-2-one]
- IC50 [1]: < 100 nM
- IC50 [2, 3]: < 100 nM

SMILES: CN1CC[C@@](O)(c2cccc(-c3csc(-c4ccnc(NC5COC5)n4)n3)c2)C1=O [Example 128, (R)-3-hydroxy-1-methyl-3-(3-(2-(2-(oxetan-3-ylamino)pyrimidin-4-yl)thiazol-4-yl)phenyl)pyrrolidin-2-one]
- IC50 [1]: < 100 nM
- IC50 [2, 3]: 100 to 500 nM

SMILES: CN1CC[C@@](O)(c2cccc(-c3nc(-c4ccnc(N[C@@H]5CCCc6cn[nH]c65)n4)cs3)c2)C1=O (single isomer, unassigned) [Example 135]
- IC50 [1]: > 501 nM
- IC50 [2, 3]: > 501 nM

SMILES: CC(Nc1nccc(-c2csc(-c3cccc([C@]4(O)CCN(C)C4=O)c3)n2)n1)c1ncccn1 (some centres unmarked) [Example 207]
- IC50 [1]: < 100 nM
- IC50 [2, 3]: > 501 nM

SMILES: Cc1cc(CNc2nccc(-c3csc(-c4cccc([C@]5(O)CCN(C)C5=O)c4)n3)n2)n[nH]1 [Example 195]
- IC50 [2, 3]: > 501 nM

SMILES: Cc1cncnc1Nc1nccc(-c2csc(-c3cccc([C@]4(O)CCN(C)C4=O)c3)n2)n1 [Example 105, (R)-3-hydroxy-1-methyl-3-(3-(4-(2-((5-methylpyrimidin-4-yl)amino)pyrimidin-4-yl)thiazol-2-yl)phenyl)pyrrolidin-2-one]
- IC50 ([2]; Homo sapiens, L-363, read-out: Assay 2 IC50): > 501 nM
